Laboratory results taken from ChEMBL document CHEMBL5149966, “Bisphosphonates, Old Friends of Bones and New Trends in Clinics” (J Med Chem, 2021).

Experiments:
[1] = tested on: Plasmodium falciparum; test: Antiparasitic activity against Plasmodium falciparum 3D7 infected in human erythrocyte assessed as intraerythrocytic growth inhibition incubated for 24 hrs followed by [3H]hypoxanthine addition by microbeta scintillation counter analysis; type: functional, organism-based; conditions: 3D7, Erythrocyte
[2] = tested on: Toxoplasma gondii; test: Antiparasitic activity against Toxoplasma gondii tachyzoites infected in human foreskin fibroblast incubated for 48 hrs followed by [5,6-3H]uracil addition and measured after 4 hrs by scintillation counter analysis; type: functional, organism-based; conditions: type III
[3] = tested on: Leishmania donovani; test: Antiparasitic activity against amastigote stage Leishmania donovani MHOM/ET/67/L82 infected in CD-1 mouse peritoneal macrophage assessed as reduction in parasite burden incubated for 5 days by Giemsa staining based microscopy; type: functional, organism-based; conditions: MHOM/ET/67/L82, Peritoneal macrophage, 120 h
[4] = tested on: Entamoeba histolytica; test: Antiparasitic activity against Entamoeba histolytica trophozoites infected in hamster liver to induce hepatic abscess assessed as reduction in liver abscess formation at 10 mg/kg, ip for 5 days; type: functional; design: scale not given: the % may be the effect or the level left; conditions: time 5 day
[5] = tested on: Trypanosoma brucei rhodesiense; test: Antiparasitic activity against Trypanosoma brucei rhodesiense STIB900 bloodstream trypomastigotes assessed as parasite growth inhibition incubated for 3 days by Alamar Blue fluorometric assay; type: functional, organism-based; conditions: STIB900, 72 h
[6] = tested on: Entamoeba histolytica; test: Antiparasitic activity against Entamoeba histolytica trophozoites assessed as parasite growth inhibition incubated for 90 hrs followed by [3H]hypoxanthine addition and measured after 6 hrs by scintillation counter analysis; type: functional, organism-based
[7] = molecular target: T1, Ditrans,polycis-undecaprenyl-diphosphate synthase ((2E,6E)-farnesyl-diphosphate specific) (Escherichia coli (strain K12), UniProt P60472); test: Inhibition of Escherichia coli UPPS
T1 sequence (P60472 whole entry): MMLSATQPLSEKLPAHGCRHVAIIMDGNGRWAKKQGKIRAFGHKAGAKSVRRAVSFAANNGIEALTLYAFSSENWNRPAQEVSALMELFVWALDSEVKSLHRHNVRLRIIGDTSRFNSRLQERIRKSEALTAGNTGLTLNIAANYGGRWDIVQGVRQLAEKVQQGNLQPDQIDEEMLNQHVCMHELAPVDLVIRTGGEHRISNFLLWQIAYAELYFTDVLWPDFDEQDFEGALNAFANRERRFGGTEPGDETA

[8] = tested on: Plasmodium berghei; test: Antiparasitic activity against Plasmodium berghei ANKA infected in BALB/c mouse assessed as reduction in parasitemia at 25 mg/kg, ip for 4 days; type: functional; design: scale not given: the % may be the effect or the level left; conditions: time 4 day
[9] = species on record: Rattus norvegicus; test: Anti-osteoclast activity rat assessed as inhibition of bone resorption relative to control; type: functional
[10] = Drug distribution in NMRI mouse liver at 4.2 mg/kg administered as C14-lableled compound and assessed as radioactivity and measured upto 2 hrs; type: ADME, organism-based; conditions: in vivo
[11] = Drug distribution in NMRI mouse spleen at 4.2 mg/kg administered as C14-lableled compound and assessed as radioactivity and measured upto 2 hrs; type: ADME, organism-based; conditions: in vivo
[12] = Drug uptake in Beagle dog pancreas at 0.15 mg/kg, iv administered as C14-lableled compound and assessed as radioactivity after 96 hrs by autoradiography; type: ADME, organism-based, Canis lupus familiaris; conditions: in vivo
[13] = Drug uptake in Beagle dog knee cartilage at 0.15 mg/kg, iv administered as C14-lableled compound and assessed as radioactivity after 96 hrs by autoradiography; type: ADME, organism-based, Canis lupus familiaris, Cartilage tissue; conditions: in vivo
[14] = Drug uptake in Beagle dog sciatic nerve at 0.15 mg/kg, iv administered as C14-lableled compound and assessed as radioactivity after 96 hrs by autoradiography; type: ADME, organism-based, Canis lupus familiaris; conditions: in vivo
[15] = Drug uptake in Beagle dog small intestine at 0.15 mg/kg, iv administered as C14-lableled compound and assessed as radioactivity after 96 hrs by autoradiography; type: ADME, organism-based, Canis lupus familiaris; conditions: in vivo
[16] = Drug uptake in Beagle dog skin at 0.15 mg/kg, iv administered as C14-lableled compound and assessed as radioactivity after 96 hrs by autoradiography; type: ADME, organism-based, Canis lupus familiaris, Skin of body; conditions: in vivo
[17] = Drug uptake in Beagle dog spleen at 0.15 mg/kg, iv administered as C14-lableled compound and assessed as radioactivity after 96 hrs by autoradiography; type: ADME, organism-based, Canis lupus familiaris; conditions: in vivo
[18] = Drug uptake in Beagle dog aorta at 0.15 mg/kg, iv administered as C14-lableled compound and assessed as radioactivity after 96 hrs by autoradiography; type: ADME, organism-based, Canis lupus familiaris; conditions: in vivo
[19] = Drug uptake in Beagle dog adrenal tissue at 0.15 mg/kg, iv administered as C14-lableled compound and assessed as radioactivity after 96 hrs by autoradiography; type: ADME, organism-based, Canis lupus familiaris; conditions: in vivo
[20] = Drug uptake in Beagle dog thyroid gland at 0.15 mg/kg, iv administered as C14-lableled compound and assessed as radioactivity after 96 hrs by autoradiography; type: ADME, organism-based, Canis lupus familiaris; conditions: in vivo
[21] = tested on: Trypanosoma cruzi; test: Antiparasitic activity against Trypanosoma cruzi amastigotes infected in vero cells assessed as parasite growth inhibition incubated for 48 hrs by light microscopy; type: functional, organism-based
[22] = Drug uptake in Beagle dog lung at 0.15 mg/kg, iv administered as C14-lableled compound and assessed as radioactivity after 96 hrs by autoradiography; type: ADME, organism-based, Canis lupus familiaris; conditions: in vivo
[23] = Drug uptake in Beagle dog heart at 0.15 mg/kg, iv administered as C14-lableled compound and assessed as radioactivity after 96 hrs by autoradiography; type: ADME, organism-based, Canis lupus familiaris; conditions: in vivo
[24] = Drug uptake in Beagle dog liver at 0.15 mg/kg, iv administered as C14-lableled compound and assessed as radioactivity after 96 hrs by autoradiography; type: ADME, organism-based, Canis lupus familiaris; conditions: in vivo

In the case of O=P(O)(O)C(O)(CCc1cccnc1)P(=O)(O)O, the IC50 [1] is reported as greater than 200 µM, the IC50 [2] is reported as greater than 200 µM and the IC50 [3] is reported as greater than 200 µM.

For CCCCCCCCCCC(O)(P(=O)(O)O)P(=O)(O)O, the IC50 [2] was 0.28 µM and the Activity [4] was 68%.

CCCCCC(O)(P(=O)(O)O)P(=O)(O)O showed an IC50 [1] of 130 µM, an IC50 [2] of 9.1 µM and an IC50 [3] greater than 200 µM. The IC50 [5] was 92 µM.

O=P(O)(O)C(O)(Nc1cccc(-c2ccccc2)c1)P(=O)(O)O showed an IC50 [1] greater than 200 µM and an IC50 [6] of 6.6 µM.

O=P(O)(O)C(O)(Nc1ccc(-c2ccccc2)cc1)P(=O)(O)O gave an IC50 [1] of 76.6 µM and an IC50 [6] of 8.76 µM.

Molecule O=P(O)(O)C(O)(Cc1cccc(-c2cccc3oc4ccccc4c23)c1)P(=O)(O)O has an IC50 [7] of 0.59 µM.

For CCCCCCCCNC(O)(P(=O)(O)O)P(=O)(O)O, the IC50 [5] was 1.7 µM.

For CCCC(O)(P(=O)(O)O)P(=O)(O)O, the IC50 [1] was 5.53 µM, the Activity [8] was 80% and the IC50 [6] was 157 µM.

CCCCCCCCCC(O)(P(=O)(O)O)P(=O)(O)O showed an IC50 [1] of 0.83 µM and an IC50 [2] of 0.55 µM.

Cc1cccnc1NC(P(=O)(O)O)P(=O)(O)O gave an IC50 [1] greater than 200 µM.

In the case of CC(N)CC(O)(P(=O)(O)O)P(=O)(O)O (stereo not drawn), the IC50 [1] is reported as greater than 200 µM and the IC50 [3] is reported as greater than 200 µM.

In the case of NCCCC(O)(P(=O)(O)O)P(=O)(O)O [ALENDRONIC ACID], the “fold change (FC)” value [9] is reported as 400.

With O=P(O)(O)C(Cl)(Cl)P(=O)(O)O [CLODRONIC ACID] the “fold change (FC)” value [9] was 10.

With CC(O)(P(=O)(O)O)P(=O)(O)O [ETIDRONIC ACID] the “fold change (FC)” value [9] was 1.

For CCCCCN(C)CCC(O)(P(=O)(O)O)P(=O)(O)O [IBANDRONIC ACID], the “fold change (FC)” value [9] was 1000.

In the case of NCCC(O)(P(=O)(O)O)P(=O)(O)O [PAMIDRONIC ACID], the “fold change (FC)” value [9] is reported as 100, the Drug uptake [10] is reported as 20% and the Drug uptake [11] is reported as 20%.

For O=P(O)(O)C(O)(Cc1cccnc1)P(=O)(O)O [RISEDRONIC ACID], the “fold change (FC)” value [9] was 2000.

For O.O=P(O)(O)C(O)(Cn1ccnc1)P(=O)(O)O [ZOLEDRONIC ACID], the Drug uptake [12] was greater than 0.1 nmol/g, the Drug uptake [13] was 0.15 nmol/g and the “fold change (FC)” value [9] was 6700. The Drug uptake [14] was greater than 0.1 nmol/g, the Drug uptake [15] was greater than 0.1 nmol/g and the Drug uptake [16] was greater than 0.1 nmol/g. The IC50 [1] was greater than 200 µM, the Drug uptake [17] was greater than 0.1 nmol/g and the IC50 [2] was 6.7 µM. It also gave a Drug uptake [18] greater than 0.1 nmol/g, a Drug uptake [19] greater than 0.1 nmol/g and a Drug uptake [20] of 0.3 nmol/g. The IC50 [21] was 35 µM, the Drug uptake [22] was greater than 0.1 nmol/g and the Drug uptake [23] was greater than 0.1 nmol/g. For the same molecule, the IC50 [5] was 8.6 µM and the Drug uptake [24] was greater than 0.1 nmol/g.
